Laboratory results reported in ChEMBL document CHEMBL3039007, “Structure-based identification of OATP1B1/3 inhibitors” (Mol Pharmacol, 2013).

Experiments:
[1] = biological target: T1, Solute carrier organic anion transporter family member 1B3 (Homo sapiens, UniProt Q9NPD5); conditions: chinese hamster, cho, 10 µM
T1 sequence (Q9NPD5 whole entry): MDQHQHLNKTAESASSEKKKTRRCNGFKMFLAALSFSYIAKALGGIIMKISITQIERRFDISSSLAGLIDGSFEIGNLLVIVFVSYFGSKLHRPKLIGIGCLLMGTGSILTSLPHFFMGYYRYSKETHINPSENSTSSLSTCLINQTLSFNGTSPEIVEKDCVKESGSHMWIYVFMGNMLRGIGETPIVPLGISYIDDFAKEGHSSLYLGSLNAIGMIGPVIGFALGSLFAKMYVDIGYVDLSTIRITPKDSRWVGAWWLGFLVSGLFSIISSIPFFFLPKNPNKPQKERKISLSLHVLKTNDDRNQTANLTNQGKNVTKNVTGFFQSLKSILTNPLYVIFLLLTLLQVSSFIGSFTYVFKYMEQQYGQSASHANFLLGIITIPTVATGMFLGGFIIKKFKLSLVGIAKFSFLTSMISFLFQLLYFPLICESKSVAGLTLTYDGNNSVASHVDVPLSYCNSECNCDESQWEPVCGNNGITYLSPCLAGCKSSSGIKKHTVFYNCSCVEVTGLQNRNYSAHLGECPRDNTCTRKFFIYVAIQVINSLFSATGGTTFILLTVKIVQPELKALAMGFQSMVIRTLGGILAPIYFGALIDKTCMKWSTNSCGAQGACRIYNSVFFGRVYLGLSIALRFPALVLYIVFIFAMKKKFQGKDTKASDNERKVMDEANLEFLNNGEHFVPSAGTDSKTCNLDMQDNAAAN

[2] = biological target: T2, Solute carrier organic anion transporter family member 1B1 (Homo sapiens, UniProt Q9Y6L6); conditions: chinese hamster, cho, 10 µM
T2 sequence (Q9Y6L6 whole entry): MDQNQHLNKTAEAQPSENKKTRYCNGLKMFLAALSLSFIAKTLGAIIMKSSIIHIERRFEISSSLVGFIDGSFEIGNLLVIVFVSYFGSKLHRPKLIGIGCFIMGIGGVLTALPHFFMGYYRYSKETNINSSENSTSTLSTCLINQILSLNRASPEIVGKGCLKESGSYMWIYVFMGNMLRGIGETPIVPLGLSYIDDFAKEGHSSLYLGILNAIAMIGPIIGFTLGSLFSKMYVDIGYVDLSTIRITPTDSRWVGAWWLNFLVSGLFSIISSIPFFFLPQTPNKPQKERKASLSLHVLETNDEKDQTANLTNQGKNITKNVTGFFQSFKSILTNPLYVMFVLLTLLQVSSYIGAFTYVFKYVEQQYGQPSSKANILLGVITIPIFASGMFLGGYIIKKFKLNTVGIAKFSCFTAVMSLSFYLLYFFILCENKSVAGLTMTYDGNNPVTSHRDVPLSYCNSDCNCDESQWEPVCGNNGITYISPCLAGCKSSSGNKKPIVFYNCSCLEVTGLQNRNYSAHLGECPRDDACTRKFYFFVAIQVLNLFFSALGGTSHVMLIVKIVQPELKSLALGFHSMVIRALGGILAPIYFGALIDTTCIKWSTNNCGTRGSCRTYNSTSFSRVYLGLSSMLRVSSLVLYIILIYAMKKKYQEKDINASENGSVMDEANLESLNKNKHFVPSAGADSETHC

With `CN(C)CC/C=C1/c2ccccc2Sc2ccc(Cl)cc21.Cl` [CHLORPROTHIXENE HYDROCHLORIDE] the residual activity [1] was 101.8% and the residual activity [2] was 85.65%.

With `CC(C)[C@@H](C)/C=C/[C@@H](C)[C@H]1CC[C@H]2C3=CC=C4C[C@@H](O)CC[C@]4(C)[C@H]3CC[C@]12C` [ERGOSTEROL] the residual activity [1] was 52.34% and the residual activity [2] was 31.68%.

In the case of `CC(=O)OC(C)(C)[C@@H]1Cc2cc3ccc(=O)oc3cc2O1` [MARMESIN ACETATE], the residual activity [1] is reported as 88.18% and the residual activity [2] is reported as 70.52%.

Work on `CC(C)/C(O)=C1/C(=O)O[C@@H](c2ccoc2)[C@]2(C)C(O)[C@@H](O)[C@@]34OC5(C)OC67CC(C)(C(O)[C@]6(O)[C@@H](O)[C@]3(O5)C12)[C@H](CC(=O)O)[C@]74C` (stereo partly specified) [HYDROLYSIS PRODUCT OF BUSSEIN] yielded a residual activity [1] of 78.08% and a residual activity [2] of 52.29%.

`Br.COc1c2c(cc3c1OCO3)CCN(C)C2` [HYDROCOTARNINE HYDROBROMIDE] gave a residual activity [1] of 89.75% and a residual activity [2] of 99.81%.

`CC1(C)CC2C1CC[C@]1(CBr)CCC3C(CC(=O)O)C(=O)O[C@@]32C1` (stereo partly specified) [BROMO-3-HYDROXY-4-(SUCCIN-2-YL)-CARYOLANE gamma-LACTONE] was tested, and the residual activity [1] was 50.1% and the residual activity [2] was 26.83%.

In the case of `O=c1cc(CO)occ1O` [KOJIC ACID], the residual activity [1] is reported as 80.38% and the residual activity [2] is reported as 79.88%.

`C[N+](C)(C)CC(=O)O.[Cl-]` [BETAINE HYDROCHLORIDE] gave a residual activity [1] of 113.7% and a residual activity [2] of 82.22%.

`Cl.c1ccc([C@H]2CN3CCSC3=N2)cc1` [LEVAMISOLE HYDROCHLORIDE] showed a residual activity [1] of 102.9% and a residual activity [2] of 121.8%.

For `COc1cc(OC)c2c(=O)c(-c3ccccc3)coc2c1` [5,7-DIMETHOXYISOFLAVONE], the residual activity [1] was 104.7% and the residual activity [2] was 99.46%.

With `Cc1cc(NC(=O)C2=C(O)c3ccccc3S(=O)(=O)N2C)no1` [ISOXICAM] the residual activity [1] was 86.6% and the residual activity [2] was 111.2%.

Molecule `CCOc1nc2cccc(C(=O)OC(C)OC(=O)OC3CCCCC3)c2n1Cc1ccc(-c2ccccc2-c2nnn[nH]2)cc1` (stereo unspecified) [CANDESARTAN CILEXETIL] has a residual activity [1] of 5.967% and a residual activity [2] of 10.55%.

In the case of `CC(=O)N(O)CCCCCNC(=O)CCC(=O)N(O)CCCCCNC(=O)CCC(=O)N(O)CCCCCN.CS(=O)(=O)O` [DEFEROXAMINE MESYLATE], the residual activity [1] is reported as 98.92% and the residual activity [2] is reported as 116.4%.

For `O=[N+]([O-])c1cc(O)c(O)c([N+](=O)[O-])c1` [3,5-DINITROCATECHOL (OR-486)], the residual activity [1] was 75.38% and the residual activity [2] was 38.63%.

`CC(=O)N[C@@H](CCC(=O)O)C(=O)O` was tested, and the residual activity [1] was 77.8% and the residual activity [2] was 59.95%.

`Cc1cc(C(C)(C)C)cc(C)c1CC1=NCCN1.Cl` [XYLOMETAZOLINE HYDROCHLORIDE] gave a residual activity [1] of 99.17% and a residual activity [2] of 86.29%.

Molecule `CCOC(=O)C1=C[C@]2(CC)CCCN3CCc4c(n1c1ccccc41)[C@@H]32` [VINPOCETINE] has a residual activity [1] of 109.4% and a residual activity [2] of 167.7%.

`CN(C)CCCN1c2ccccc2Sc2ccc(Cl)cc21` [CHLORPROMAZINE] gave a residual activity [1] of 97.66% and a residual activity [2] of 99.49%.

Work on `Oc1ccc(O)cc1` [HYDROQUINONE] yielded a residual activity [1] of 93.82% and a residual activity [2] of 112.9%.

`CN[C@H]1C[C@@H](N)[C@H](O)[C@@H](O[C@@H]2O[C@H](CO)[C@H](O)[C@H]3O[C@@]4(O[C@H]23)O[C@H]([C@H](N)CO)[C@H](O)[C@H](O)[C@H]4O)[C@@H]1O` gave a residual activity [1] of 91.81% and a residual activity [2] of 103.7%.

`C=C1CCC2C(CC2(C)C)C(=C)CC/C1=N/O` (stereo unspecified) [5-HYDROXYIMINOISOCARYOPHYLLENE] gave a residual activity [1] of 80.99% and a residual activity [2] of 84.7%.

For `CCCCCCCCCCCCCCCCOP(=O)([O-])OCC[N+](C)(C)C` [MILTEFOSINE], the residual activity [1] was 93.25% and the residual activity [2] was 89.28%.

`CCc1nc(N)nc(N)c1-c1ccc(Cl)cc1` [PYRIMETHAMINE] was tested, and the residual activity [1] was 107.4% and the residual activity [2] was 72.59%.

For `CC(C)Oc1ccc2c(=O)c(-c3ccccc3)coc2c1` [IPRIFLAVONE], the residual activity [1] was 84.86% and the residual activity [2] was 137.7%.

In the case of `CCCCCCNC(=O)n1cc(F)c(=O)[nH]c1=O` [CARMOFUR], the residual activity [1] is reported as 98.17% and the residual activity [2] is reported as 107%.

`Nc1ncnc2nc[nH]c12` [ADENINE] gave a residual activity [1] of 81.98% and a residual activity [2] of 90.14%.

`O=C(/C=C/c1ccc(O)c(O)c1)O[C@@H]1C[C@](O)(C(=O)O)C[C@@H](O)[C@H]1O` [CHLOROGENIC ACID] gave a residual activity [1] of 103.1% and a residual activity [2] of 105.9%.

For `C[N+](C)(C)CCOP(=O)(O)OP(=O)([O-])OC[C@H]1O[C@@H](n2ccc(N)nc2=O)[C@H](O)[C@@H]1O` [CITICOLINE], the residual activity [1] was 69.94% and the residual activity [2] was 81.06%.

`Cc1cccc(C(=O)O)c1O` [HYDROXYTOLUIC ACID] was tested, and the residual activity [1] was 110.2% and the residual activity [2] was 125.2%.

Work on `CC(=O)NC(C(=O)O)C(C)(C)SN=O` (stereo unspecified) yielded a residual activity [1] of 84.98% and a residual activity [2] of 73.57%.

`O=C(CCCCCCCCCCCCC1CCCC1)Nc1ccc(S(=O)(=O)c2ccc(NC(=O)CCCCCCCCCCCCC3CCCC3)cc2)cc1` [CHAULMOSULFONE] gave a residual activity [1] of 75.08% and a residual activity [2] of 65.99%.

`C=CCc1ccc2c(c1)OCO2` [SAFROLE] gave a residual activity [1] of 100.9% and a residual activity [2] of 83.42%.

Molecule `CC(=O)O[C@H]1CC[C@@]2(C)[C@@H](CC[C@H]3[C@@H]4CC=C(C(C)=O)[C@@]4(C)C(=O)C[C@@H]32)C1` has a residual activity [1] of 85.5% and a residual activity [2] of 81.91%.

`O=C1C=C(O)C(=O)c2ccccc21` [LAWSONE] was tested, and the residual activity [1] was 101.6% and the residual activity [2] was 99.76%.

`NCC(CC(=O)O)c1ccc(Cl)cc1` (stereo unspecified) [BACLOFEN] was tested, and the residual activity [1] was 102.2% and the residual activity [2] was 80.8%.

`Cc1nccc2c1[nH]c1cc(O)ccc12.Cl` [HARMOL HYDROCHLORIDE] showed a residual activity [1] of 124.7% and a residual activity [2] of 91.2%.

Work on `CC1(C)[C@H](O)C[C@H](O)[C@]2(C)[C@H]3CC[C@@]4(C)[C@H](c5ccoc5)OC(=O)[C@H]5O[C@]54[C@]3(C)C(=O)C[C@@H]12` yielded a residual activity [1] of 93.94% and a residual activity [2] of 48.25%.

With `CC(CN(C)C)CN1c2ccccc2CCc2ccccc21.O=C(O)/C=C\C(=O)O` (stereo unspecified) [TRIMIPRAMINE MALEATE] the residual activity [1] was 103.3% and the residual activity [2] was 93.52%.

Molecule `CN(C)CCN(Cc1cccs1)c1ccccn1.Cl` [METHAPYRILENE HYDROCHLORIDE] has a residual activity [1] of 82.96% and a residual activity [2] of 83.03%.

For `CN1CCOC(c2ccccc2)c2ccccc2C1` (stereo unspecified) [NEFOPAM], the residual activity [1] was 100.9% and the residual activity [2] was 102.9%.

In the case of `C[C@@H]1C[C@H]2CC(=O)[C@H]3CCCN4CCCC2[C@]34C1.[O-][Cl+3]([O-])([O-])O` (stereo partly specified), the residual activity [1] is reported as 106.7% and the residual activity [2] is reported as 104.6%.

With `O=C1CCC(N2C(=O)c3ccccc3C2=O)C(=O)N1` (stereo unspecified) [THALIDOMIDE] the residual activity [1] was 101% and the residual activity [2] was 82.94%.

With `O=[N+]([O-])c1cccc2cn[nH]c12` [7-NITROINDAZOLE] the residual activity [1] was 106.1% and the residual activity [2] was 147.5%.

`CC(=O)Oc1cc(-c2coc3cc(OC(C)=O)c(OC(C)=O)c(OC(C)=O)c3c2=O)cc(OC(C)=O)c1OC(C)=O` [IRIGINOL HEXAACEATATE] gave a residual activity [1] of 94.12% and a residual activity [2] of 102.1%.

For `Cc1[nH]c2ccccc2c1CN(C)C` [2-METHYL GRAMINE], the residual activity [1] was 80.09% and the residual activity [2] was 39.17%.

With `COc1cccc(-c2cc(=O)c3ccc(OC)cc3o2)c1` [7,3'-DIMETHOXYFLAVONE] the residual activity [1] was 101.6% and the residual activity [2] was 98.64%.

With `CC(=O)O[C@@H]1c2c(ccc3ccc(=O)oc23)OC(C)(C)[C@@H]1OC(=O)CC(C)C` [DIHYDROSAMIDIN] the residual activity [1] was 104.1% and the residual activity [2] was 75.05%.

Work on `CNC(C)C(O)c1ccccc1.Cl` (stereo unspecified) [RACEPHEDRINE HYDROCHLORIDE] yielded a residual activity [1] of 103.1% and a residual activity [2] of 70.72%.
